One assay has as its target T1, full-length SPA1 (Arabidopsis thaliana, UniProt Q9SYX2, R517E).
T1 construct: full length, strep-tagged (3x Flag also cloned), Pichia pastoris GS115, tags kept
T1 sequence (Q9SYX2 1-1029 R517E): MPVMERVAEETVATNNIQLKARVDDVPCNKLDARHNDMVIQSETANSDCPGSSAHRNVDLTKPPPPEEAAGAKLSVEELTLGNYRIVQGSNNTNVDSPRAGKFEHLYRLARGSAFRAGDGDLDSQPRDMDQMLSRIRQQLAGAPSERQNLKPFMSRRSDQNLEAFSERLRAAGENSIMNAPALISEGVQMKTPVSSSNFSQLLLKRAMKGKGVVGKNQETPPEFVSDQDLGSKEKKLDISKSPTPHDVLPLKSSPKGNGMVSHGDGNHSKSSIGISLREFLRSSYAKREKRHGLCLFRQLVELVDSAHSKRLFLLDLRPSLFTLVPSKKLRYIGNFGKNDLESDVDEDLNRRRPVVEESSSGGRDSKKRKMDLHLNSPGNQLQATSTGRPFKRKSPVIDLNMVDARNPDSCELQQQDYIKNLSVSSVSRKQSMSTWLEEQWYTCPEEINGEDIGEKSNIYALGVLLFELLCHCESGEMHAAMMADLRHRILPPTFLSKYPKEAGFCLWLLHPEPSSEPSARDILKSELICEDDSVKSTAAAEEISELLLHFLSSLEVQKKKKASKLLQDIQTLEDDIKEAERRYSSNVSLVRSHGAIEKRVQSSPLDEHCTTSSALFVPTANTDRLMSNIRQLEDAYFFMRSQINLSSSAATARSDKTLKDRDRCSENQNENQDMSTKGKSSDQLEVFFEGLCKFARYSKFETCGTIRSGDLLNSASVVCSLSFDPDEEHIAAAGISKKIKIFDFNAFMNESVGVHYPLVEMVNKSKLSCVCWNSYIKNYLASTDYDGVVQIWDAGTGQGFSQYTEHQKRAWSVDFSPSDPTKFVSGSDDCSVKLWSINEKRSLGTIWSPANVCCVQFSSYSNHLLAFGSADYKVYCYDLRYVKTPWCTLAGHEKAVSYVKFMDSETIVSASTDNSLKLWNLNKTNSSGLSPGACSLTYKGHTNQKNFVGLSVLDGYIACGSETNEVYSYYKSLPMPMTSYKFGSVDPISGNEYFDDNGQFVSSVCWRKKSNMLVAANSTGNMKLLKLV
Nature of the assay: in vitro kinase assay, autoradiogram. It counts as biochemical. As to conditions: GST-PIF1 as co-substrate, 10 mM MgCl2, pH 7.5, 28 °C; labelled compound (gamma-32P).

In assay [1] the target is T2, phyB-GFP FL purified from yeast (Saccharomyces cerevisiae) (Arabidopsis, UniProt P14713 1-1172, phycocyanobilin (PCB) chromophore assembled).
T2 construct: not shown: GFP, C-terminal, kept
T2 sequence (looked up): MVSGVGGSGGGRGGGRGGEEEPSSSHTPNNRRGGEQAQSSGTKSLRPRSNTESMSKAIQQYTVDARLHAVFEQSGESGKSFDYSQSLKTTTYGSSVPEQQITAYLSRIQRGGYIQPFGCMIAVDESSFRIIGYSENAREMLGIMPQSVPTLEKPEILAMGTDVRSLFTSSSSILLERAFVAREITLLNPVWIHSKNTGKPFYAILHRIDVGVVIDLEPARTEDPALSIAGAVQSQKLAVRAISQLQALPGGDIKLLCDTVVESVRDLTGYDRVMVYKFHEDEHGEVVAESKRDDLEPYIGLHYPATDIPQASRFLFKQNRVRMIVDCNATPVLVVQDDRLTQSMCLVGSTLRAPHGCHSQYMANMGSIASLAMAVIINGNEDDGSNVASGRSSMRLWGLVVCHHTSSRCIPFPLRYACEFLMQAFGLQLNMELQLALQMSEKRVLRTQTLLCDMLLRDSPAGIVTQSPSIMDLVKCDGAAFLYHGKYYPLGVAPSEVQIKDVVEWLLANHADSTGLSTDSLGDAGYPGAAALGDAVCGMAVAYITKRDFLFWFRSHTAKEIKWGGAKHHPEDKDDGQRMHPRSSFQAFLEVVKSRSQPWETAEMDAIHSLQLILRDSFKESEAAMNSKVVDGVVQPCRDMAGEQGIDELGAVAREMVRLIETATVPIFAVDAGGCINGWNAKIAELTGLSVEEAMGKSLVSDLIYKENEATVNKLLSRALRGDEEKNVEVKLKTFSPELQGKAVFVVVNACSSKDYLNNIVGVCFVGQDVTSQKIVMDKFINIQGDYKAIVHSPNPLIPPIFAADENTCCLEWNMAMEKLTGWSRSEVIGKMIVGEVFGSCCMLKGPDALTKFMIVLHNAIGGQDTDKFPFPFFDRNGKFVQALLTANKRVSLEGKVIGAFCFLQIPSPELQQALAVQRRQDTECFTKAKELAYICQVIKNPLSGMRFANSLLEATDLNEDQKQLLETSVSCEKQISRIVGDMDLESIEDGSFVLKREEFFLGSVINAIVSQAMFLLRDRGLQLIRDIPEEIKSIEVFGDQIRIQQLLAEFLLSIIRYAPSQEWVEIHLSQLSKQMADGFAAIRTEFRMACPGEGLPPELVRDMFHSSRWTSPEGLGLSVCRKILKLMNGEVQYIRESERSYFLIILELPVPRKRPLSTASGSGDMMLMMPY
Nature of the assay: pull-down; in vitro: phytochromes purified from yeast (S. cerevisiae) and GST-PIF1; light-dependent. The following applies: both partners purified.

Turning to `Nc1ncnc2c1ncn2[C@@H]1O[C@H](COP(=O)(O)OP(=O)(O)OP(=O)(O)O)[C@@H](O)[C@H]1O` [ATP], the “in vitro kinase assay, autoradiogram” value at full-length SPA1 is “mSPA1 showed significantly reduced PIF1 phosphorylation compared to the wild type SPA1”.

B1: GST-PIF1-strep (natural protein, Arabidopsis, UniProt Q8GZM7 1-478, looked up)
chain: MHHFVPDFDTDDDYVNNHNSSLNHLPRKSITTMGEDDDLMELLWQNGQVVVQNQRLHTKKPSSSPPKLLPSMDPQQQPSSDQNLFIQEDEMTSWLHYPLRDDDFCSDLLFSAAPTATATATVSQVTAARPPVSSTNESRPPVRNFMNFSRLRGDFNNGRGGESGPLLSKAVVRESTQVSPSATPSAAASESGLTRRTDGTDSSAVAGGGAYNRKGKAVAMTAPAIEITGTSSSVVSKSEIEPEKTNVDDRKRKEREATTTDETESRSEETKQARVSTTSTKRSRAAEVHNLSERKRRDRINERMKALQELIPRCNKSDKASMLDEAIEYMKSLQLQIQMMSMGCGMMPMMYPGMQQYMPHMAMGMGMNQPIPPPSFMPFPNMLAAQRPLPTQTHMAGSGPQYPVHASDPSRVFVPNQQYDPTSGQPQYPAGYTDPYQQFRGLHPTQPPQFQNQATSYPSSSRVSSSKESEDHGNHTTG
notes: source: E. coli BL21(DE3), purified (Strep-Tactin Sepharose); not shown: GST, N-terminal, kept; Strep tag, C-terminal, kept
Consider B1, for which the binding result in assay [1] is recorded as “binds”.

For the origin of these results see PMC6746701, “A phyB-PIF1-SPA1 kinase regulatory complex promotes photomorphogenesis in Arabidopsis” (Nature Communications, 2019).
